Data as given in US12668573B2, “Linker, antibody-drug conjugate including same and use thereof” (Zhejiang Yangshengtang Institute of Natural Medication Co., …, priority 2018, dated 2026).
Square brackets hold non-standard residues; d marks the D form. Peptide text beside a SMILES is read from it. * marks the point of attachment. Dolaproine = CO[C@@H]([C@@H]1CCCN1)[C@@H](C)C(=O)O; Dil = CC[C@H](C)[C@H](NC)[C@@H](CC(=O)O)OC; X1 = C[C@@H](N*)[C@@H](O)c1ccccc1; NMeV = CN[C@H](C(=O)O)C(C)C

Legend:
[1] = Stability of small molecule-linker conjugates in presence of excess free sulfhydryl (Cys), RP-HPLC; format: physicochemical; settings: PBS with Cys 0.41 mg/mL, pH=7.4, 37° C., 7 days; peak area at t=0 defined as 100%
Experimental: In this example, the small molecule conjugates containing methyl maleate linker (Conjugate-1, Conjugate-2 and Conjugate-3, prepared in Example 9) and small molecule conjugates containing succinimide linker (Conjugate-1′, Conjugate-2′ and Conjugate-3′, prepared in Example 9) were evaluated to determine their stability situations in the presence of excess free sulfhydryl (Cys), in which the monitoring indicators were the changes of the remaining amounts of the small molecule conjugates containing two different linkers in the solution over time. The substances to be tested were each dissolved in DMSO, diluted with 10 times volume of PBS buffer containing cysteine (in which the concentration of Cys was 0.41 mg/mL, pH=7.4) and incubated in a 37° C. incubator; at t=0, another 200 μL of each sample was taken and stored at −80° C. as control. After each solution was incubated for 7 days, samples were taken separately, and RP-HPLC was used to detect the changes of their remaining amounts of substrate over time, in which the peak area of substrate at t=0 was defined as 100%.

[2] = tested on: BT-474; test: In vitro cytotoxicity test (CellTiter Glo, 96 h); format: cell-based, human; settings: BT-474, HER2-positive breast cancer; ADC DAR about 4
Experimental: (§1) The selected cell lines included antigen HER2-positive breast cancer cell lines BT-474 and HCC1954, antigen HER2-positive ovarian cancer cell line SK-OV-3, antigen HER2-positive gastric cancer cell line NCI-N87, and antigen HER2-weakly positive breast cancer cell line MCF-7, and antigen HER2-negative breast cancer cell line MDA-MB-468 (purchased from ATCC).
a) Vial was gently shaken in a 37° C. water bath to be thawed; b) after all the contents had been thawed, the vial was taken out from the water bath, and disinfected by immersion in or spraying with 70% ethanol; c) the contents of the vial was transferred into a centrifuge tube containing 9 mL of complete medium (DMEM medium was used for cell lines BT-474 and MCF-7; RPMI1640 medium was used for cell lines NCI-N87, HCC1954 and MDA-MB-468; and Mccoy's 5A medium was used for cell line SK-OV-3; the media described below were the same as here), and centrifuged at about 200 xg for 5 minutes; d) the cell pellet was re-suspended in a medium and distributed into a 75 cm^2 culture flask; e) the resulting culture was incubated in a 37° C., 5% CO2 incubator. […]

[3] = tested on: HCC1954; test: In vitro cytotoxicity test (CellTiter Glo, 96 h); format: cell-based; settings: HCC1954, HER2-positive breast cancer; ADC DAR about 4
Experimental: as §1
(§2) a) Vial was gently shaken in a 37° C. water bath to be thawed; b) after all the contents had been thawed, the vial was taken out from the water bath, and disinfected by immersion in or spraying with 70% ethanol; c) the contents of the vial was transferred into a centrifuge tube containing 9 mL of complete medium (DMEM medium was used for cell lines BT-474 and MCF-7; RPMI1640 medium was used for cell lines NCI-N87, HCC1954 and MDA-MB-468; and Mccoy's 5A medium was used for cell line SK-OV-3; the media described below were the same as here), and centrifuged at about 200 xg for 5 minutes; d) the cell pellet was re-suspended in a medium and distributed into a 75 cm^2 culture flask; e) the resulting culture was incubated in a 37° C., 5% CO2 incubator.
(§3) a) The cells were passaged three times a week at a ratio of 1:4 in a medium containing 10% FBS (heat inactivated) and 1% penicillin/streptomycin solution; b) for the passaged cells, the adherent cells were firstly washed with 0.05% trypsin/EDTA solution (3 mL), then trypsin/EDTA (3 mL) was added and vortexed to coat the cells evenly. The resulting culture was incubated at 37° C. until the cells were detached (observed with microscope to verify that the cells were detached). An equal volume of cell culture medium was added to inactivate trypsin, the detached cells were collected, and centrifuged at 200×g for 5 minutes and then re-suspended in fresh culture medium.

[4] = tested on: MCF-7; test: In vitro cytotoxicity test (CellTiter Glo, 96 h); format: cell-based; settings: MCF-7, HER2-weakly positive breast cancer; ADC DAR about 4
Experimental: as §1, §2, §3

[5] = tested on: MDA-MB-468; test: In vitro cytotoxicity test (CellTiter Glo, 96 h); format: cell-based; settings: MDA-MB-468, HER2-negative breast cancer; ADC DAR about 4
Experimental: as §1, §2, §3

[6] = tested on: NCI-N87; test: In vitro cytotoxicity test (CellTiter Glo, 96 h); format: cell-based; settings: NCI-N87, HER2-positive gastric cancer; ADC DAR about 4
Experimental: as §1, §2, §3

[7] = tested on: SK-OV-3; test: In vitro cytotoxicity test (CellTiter Glo, 96 h); format: cell-based; settings: Sk-OV-3, HER2-positive ovarian cancer; ADC DAR about 4
Experimental: as §1, §2, §3

| Structure (SMILES) | Remaining amount [1] [%] | also measured |
| --- | --- | --- |
| COC(=O)CC(SC[C@H](NC(C)=O)C(=O)NCc1ccccc1)C(=O)NCCCCCC(=O)Nc1ccccc1 (stereo partly drawn) [Conjugate-1] | 96 |  |
| COC(=O)CC(SCc1ccccc1)C(=O)NCCCCCC(=O)Nc1ccccc1 (stereo not drawn) [Conjugate-3] | 93 |  |
| O=C(CCCCCN1C(=O)CC(SCc2ccccc2)C1=O)Nc1ccccc1 (stereo not drawn) [Conjugate-3′] | 49 |  |
| CC[C@H](C)[C@@H]([C@@H](CC(=O)N1CCC[C@H]1[C@H](OC)[C@@H](C)C(=O)N[C@H](C)[C@@H](O)c1ccccc1)OC)N(C)C(=O)[C@@H](NC(=O)[C@@H](NC)C(C)C)C(C)C [MMAE, Monomethyl-auristatin E] (H-[NMeV]V[Dil][Dolaproine]-X1) |  | IC50 [2]: 299 pM; IC50 [3]: 116 pM; IC50 [4]: 223 pM; IC50 [5]: 66.9 pM; IC50 [6]: 161 pM; IC50 [7]: 644 pM |

The next lines start with results.

| Remaining amount [1] [%] | Structure (SMILES) | also measured |
| --- | --- | --- |
| 53 | CC(=O)N[C@@H](CSC1CC(=O)N(CCCCCC(=O)Nc2ccccc2)C1=O)C(=O)NCc1ccccc1 (stereo partly drawn) [Conjugate-1′] |  |
| 98 | COC(=O)CC(SCCO)C(=O)NCCCCCC(=O)Nc1ccccc1 (stereo not drawn) [Conjugate-2] |  |
| 61 | O=C(CCCCCN1C(=O)CC(SCCO)C1=O)Nc1ccccc1 (stereo not drawn) [Conjugate-2′] |  |
